What was measured:
Format in all cases: in vivo
[1] = system: OVA-sensitized/challenged mice; assay: OVA-induced bronchial asthma mouse model (Standard/Resolution protocols, 1-3 month), airway eosinophils and mucus plugs
From the text: The OVA-induced Bronchial Asthma Mouse Model for Inhibition of Mast Cell Degranulation
Reagents: Crystalline OVA was obtained from Pierce Chem. Co. (Rockford, Ill.) aluminum potassium sulfate (alum) from Sigma Chem. Co. (St. Louis, Mo.), pyrogen-free distilled water from Baxter, Healthcare Corporation (Deerfield, Ill.), 0.9% sodium chloride (normal saline) from Lymphomed (Deerfield, Ill.) and Trappsol™ HPB-L100 (aqueous hydroxypropyl beta cyclodextrin; 45 wt/vol % aqueous solution) from Cyclodextrin Technologies Development, Inc. (Gainesville, Fla.). The OVA (500 μg/ml in normal saline) was mixed with equal volumes of 10% (wt/vol) alum in distilled water. The mixture (pH 6.5 using 10 N NaOH) after incubation for 60 minutes at room temperature underwent centrifugation at 750 g for 5 minutes; the pellet was resuspended to the original volume in distilled water and used within one hour.
The selective 5-lipoxtgenase inhibitor, Zileuton (N-[1-benzo[b]thien-2-ylethyl]-N-hydroxyurea; J. Pharmacol Exp Ther. 1991; 256: 929-937), was kindly provided by Drs. Bell and George W. Carter (Abbott Laboratories, Abbott Part, Ill.). Zileuton was dissolved in Trappsol.™. Histatek, Inc. (Seattle, Wash.) provided the mast cell degranulation inhibitor, f-Met-Leu-Phe-Phe (“HK-X”).
Female BALB/c […] (6-8 wk of age at purchase; D and K, Seattle Wash.) were housed under conventional conditions for the studies.
Allergen Immunization/Challenge Protocols: Mice received an i.p. injection of 0.2 ml (100 μg) of OVA with alum on the different protocols of Standard (FIG. 5A) and Resolution (FIG. 5B) (J. Exp Med. 1996; 184: 1483-1494). According to the different protocols, mice were anesthetized with 0.2 ml i.p. of ketamine (0.44 mg/ml)/xylazine (6.3 mg/ml) in normal saline before receiving an intranasal (i.n.) does of 100 μg OVA in 0.05 ml normal saline and an i.n. dose of 50 μg OVA in 0.05 ml normal saline separately on different days. Two control groups were used. Accordingly, the first group received normal saline with alum i.p. and normal saline without alum i.n.; the second group received OVA with alum i.p., OVA without alum i.n., and normal saline, alone.
The trachea and left lung (the right lung is used for bronchoalveolar lavage (“BAL”)) were obtained and fixed in 10% neutral formaldehyde solution at room temperature for 6˜15 h. After being embedded in paraffin, the tissues were cut into 5-um sections and processed with the different staining or immunolabling further. Discombe's eosinophil staining was used for counting the cell numbers with the counterstain of methylene blue. The eosinophil number per unit airway area (2,200 μm^2) was determined by morphometry (J. Pathol. 1992; 166: 395-404; Am Rev Respir Dis. 1993; 147:448-456). Fibrosis was identified with the Masson's trichrome staining. Airway mucus was identified by the following staining method: methylene blue, hematoxylin and eosin, mucicarmine, alcian blue, and alcian blue/periodic acid-Schiff (PAS) reaction (Troyer, H., “Carbohydrates” in Principles and Techniques of Histochemistry, Little, Brown and Company, Boston, Mass., 1980: 89-121; Sheehan, D. C., et al., “Carbohydrates” in Theory and Practice of Histotechnology, Battle Press, Columbus, Ohio, 1980: 159-179) Mucin was stained with mucicarmine solution; metanil yellow counterstain was employed. Acidic mucin and sulfated mucosubstances were stained with alcian blue, pH 2.5; nuclear fast red counterstain was used. Neutral and acidic mucosubstances were identified by alcian blue, pH 2.5, and PAS reaction. The degree of mucus plugging of the airways (0.5-0.8 mm in diameter) was also assessed by morphometry. The percent occlusion of airway diameter by mucus was classified on a semiquantitative scale from 0 to 4+ as described in Figure Legends. The histologic and morphometric analyses were performed by individuals blinded to the protocol design. […]

[2] = system: OVA-sensitized/challenged mice; assay: OVA allergen-induced airway inflammation mouse model, 28-day protocol, HK-X i.n. before each challenge; details: p=0.0128 compared to OVA without zileuton; data not shown
[3] = system: OVA-sensitized/challenged mice; assay: as above; details: p<0.004; FIG. 11
From the text: The above-described murine model reproduces key features of human asthma. Late-phase allergen-specific pulmonary disease was induced in normal BALB/c mice using ovalbumin (OVA) as allergen. One protocol includes immunization of mice with i.p. OVA on […] and 14, and intranasal (i.n.) administration of OVA on days 14, 25, 26, and 27.
In a mouse model of allergen-induced airway inflammation, the role of mast cell in airway eosinophil infiltration, mucus release, and hyper-responsiveness to methacholine was examined.
Materials were used as described above. Mice received an i.p. injection of 0.2 ml (100 ug) of OVA complexed with aluminum potassium sulfate (alum) on day 0 and 14. On days 14, 25, 26, and 27, mice were anesthetized with 0.2 ml i.p. of ketamine (0.44 mg/ml)/xylazine (6.3 mg/ml) in normal saline before receiving an intranasal (i.n.) dose of 100 ug OVA in 0.05 ml normal saline on days 25, 26, and 27. Lung tissue was obtained 24 hours after the last i.n. challenge on day 28. The control group received normal saline with alum i.p. on days 0 and 14 and normal saline without alum i.n. on days 14, 25, 26, and 27. To assess the effect of HK-X inhibition on OVA induced asthma, HK-X (10 ug/ml) was given i.n. 30 minutes before each i.n challenge on days 25, 26, and 27.
After tying off the left lung at the mainstem bronchus, the right lung was […] three times with 0.4 ml of normal saline, Bronchoalveolar lavage (BAL) fluid cells from a 0.05 ml aliquot of the pooled sample were counted using a hemocytometer and the remaining fluid centrifuged at 4° C. for 10 minutes at 200 g. After resuspension of the cell pellet in normal saline containing 10% BSA, BAL cell smears were made on glass slides. To stain eosinophils, dried slides were stained with Discombe's diluting fluid (0.05% aqueous eosin and 5% (v/v) acetone in distilled water) for 5-8 minutes, rinsed with water for 0.5 minutes and counterstained with 0.07 methylene blue for 2 minutes.
Following BAL, the trachea and left lung (upper and lower lobes) were obtained and fixed in 10% buffered formalin solution at 20° C. for1S hours. After the tissues were processed and embeded in paraffin, the tissues were cut into 5 μm sections and stained with Discombe's solution and counterstained with methylene blue as described above or stained with Hematoxylin and eosin. The eosinophil number per unit airway area (2200 μm^2) was determined by morphometry as previously described. Airway mucus was identified by a variety of staining methods, i.e., methylene blue, Hematoxylin and eosin, mucicarmine, toluidine blue, alcian blue, and alcian blue/periodic acid Schiff (PAS) reaction. Mucin was stained with mucicarmine solution; metanil yellow counterstain was employed. Mucin and sialic acid-rich non-sulfated mucosubstances were stained metachromatically with toluidine blue, pH 4.5. Acidic mucin and sulfated mucosubstances were stained with alcian blue, pH 2.5; nuclear fast red counterstain was used. Neutral and acidic mucosubstances were identified by alcian blue, pH 2.5 and PAS reaction. The degree of mucus plugging of the airways (0.5˜0.8 mm in diameter) also was assessed by morphometry. The percent occlusion of airway diameter by mucus was classified on a semiquantitative scale from 0 to +++++. The histologic and morphometric analyses protocol design were performed by individuals blinded to the protocol design.
Mucus glycoproteins in BAL fluid were assayed by slot blotting and PAS staining as described. Nitrocellulose membranes (0.2 um pore size; Schleicher & Schuell, Keene, N.H.) were wetted in distilled water and then in normal saline before placement in a Minifold II 72-well slot blot apparatus (Schleicher & Schuell). The BAL fluid samples (0.05 ml) and aliquots (0.05-0.75 ml) of a stock solution (2 ug/ml) of human respiratory mucin glycoprotein were blotted onto the nitrocellulose membranes by water suction vacuum, and mucus glycoproteins were visualized by PAS reaction. […]

[4] = system: mast cell degranulation induced by Compound 48/80; assay: Rat skin model: inhibition of Compound 48/80-induced mast cell degranulation (capillary permeability, trypan blue); details: 0.15 μg Compound 48/80; for % Degranulation: percent mast cell degranulation produced by 48/80, 100 nanomoles peptide
Protocol: The Rat Skin Model for Determination of Inhibition of Mast Cell Degranulation
In this model, the blood plasma of the experimental rat is labeled with the dye trypan blue. This soluble dye is carried in the bloodstream as a passive marker of plasma itself, and is excluded from live cells. Intact blood vessels, including the capillary system, retain this dye under normal circumstances. A compound, which induces degranulation of mast cells (resulting in leukotriene and histamine release), is injected into the skin to simulate allergen-induced degranulation. In these experiments, Compound 48/80 was used for this purpose. In the events following leukotriene and histamine release, capillary permeability is increased, and plasma, dyed blue, leaks from capillaries and dyes the skin surrounding the injection site blue. The area of bluing is a measure of the amount of Compound 48/80 injected.
A compound can be tested for “anti-leukotriene” and/or “anti-histamine” activity by mixing it with Compound 48/80 prior to injection.
The rat skin model was undertaken and validated. Various peptides were tested at a predetermined dose for anti-leukotriene and/or anti-histamine activity. The dose selected allowed a general comparison to f-Met-Leu-Phe, which was standard compound for comparison.
A “dose response” titration was performed for some compounds and compared with the standard compound. Observing serial decreases in the size areas of capillary permeability using serially smaller doses of the putative inhibitory compound validates the inhibition of leukotriene and/or histamine release observed in the initial predetermined dose test.
Reagents were obtained from Sigma or Aldrich, with the exception of ketamine, a veterinary anaesthetic that was obtained from various veterinary suppliers. The rats used were male Sprague-Dawley breed, 220-240 g at time of purchase from B&K International.
For the rat skin reaction, rats were anaesthetized with 0.25 ml 10 mg/ml ketamine. 1.0 ml trypan blue in saline (sterile filtered) was administered in a tail vein, and the back of the rat was shaved. Four intradermal injection sites per rat were used for test and control injections.
Compound 48/80 was prepared as a 1.5 mg/ml stock solution in saline. […] Serial dilutions in saline to working levels were prepared just prior to injection of each rat.
Peptides were prepared as a 23 mM stock solution in DMSO, and stored at −20° C. between experiments. At the time of use, the frozen stock solutions were thawed, and appropriate aliquots added to dilutions of Compound 48/80, along with appropriate amounts of DMSO, to result in the ratio of 5 μl DMSO to 0.1 ml aqueous Compound 48/80.
For injections, 0.1 ml […], +1/− test compounds were injected intradermally into anaesthetized, dyed, and shaved rats. Following a 15 minute incubation, the rats were sacrificed by cervical dislocation and the back skin was evulsed and placed on a light box. An image of the backlit skin was digitized using a CCD video capture camera and compatible hardware/software. The digitized image was analyzed using a scientific graphics analysis software package, and the areas of capillary permeability (bluing) were integrated and digital values were obtained for further analysis.
A dose response curve was generated using Compound 48/80 at various doses from ca. 0.01 μg through ca. 15 μg. […] A dose of 0.15 μg of Compound 48/80 was selected for conducting further tests.
Several f-Met-Leu peptides were tested for inhibition of induced degranulation in the rat skin model using 100 nanomoles of the test peptide and a dose of 0.15 μg Compound 48/80. An intrinsic zero-peptide-dose 48/80 control was included in each rat for each experiment, and the % of inhibition was expressed in relative terms to this control (0% inhibition). The percent mast cell degranulation produced by 48/80 was also determined.

With `CC(c1cc2ccccc2s1)N(O)C(N)=O` (stereo not shown) [Zileuton, N-[1-benzo[b]thien-2-ylethyl]-N-hydroxyurea, reference compound] the “AIRWAY INFLUX OF EOSINOPHILS (%)” value ([1]; 1 month) was 15.50%, the “AIRWAY INFLUX OF EOSINOPHILS (%)” value ([1]; 2 month) was 11.66% and the “AIRWAY INFLUX OF EOSINOPHILS (%)” value ([1]; 3 month) was 10.73%. The “% of plug of airway” value ([1]; 28 days) was 16%, the “PERCENTAGE OF EOSINOPHILS IN AIRWAY TISSUE” value ([1]; 28 days of treatment) was 15.8% and the “MUCUS PLUG SCORE IN AIRWAYS” value ([1]; 28 days, semiquantitative scale 0 to 4+) was 1.3. For the same molecule, the “reduction of airway eosinophils” value ([1]; through 1-3 month) was “could reduced eosinophils generally through 1-3 month”, the “decrease in eosinophils recovered in the BAL fluid” value [2] was 89% and the “decrease in number of eosinophils in the BAL fluid” value [3] was 82%.

“f-Met-Leu-Phe [Example 2, reference compound]” was tested, and the “dose response, inhibition of degranulation induced by Compound 48/80” value ([4]; doses of 0 to about 230 nM peptide, FIG. 2 / FIG. 3) was “Inhibition of degranulation induced by Compound 48/80 was clearly shown” and the “% Degranulation” value [4] was 60%.

In the case of N-acetyl-Met-Leu-Phe [Example 3], the “% Degranulation” value [4] is reported as 98%.

With f-Met-Leu-Tyr [Example 10] the “% Degranulation” value [4] was 30%.
